Key:
[1] = tested on: MDA-MB-231 cells; test: MTT cytotoxicity assay, MDA-MB-231; assay type: cell-based; conditions: Homo sapiens, MDA-MB-231, 24 h
Protocol: Following an extensive review of the literature, we selected human breast cancer (MCF-7, MDA-MB-231) and lung cancer (A549) cell lines to evaluate the anticancer potential of the synthesized compounds, and some compounds with good anti-proliferation activity were again tested to evaluate their cytotoxic potential on A-549, MCF-7, and MDA-MB-231. The same were also tested on one non-cancerous/normal (HEK-293) cell line. All the cell lines for the required screening were developed in a suitable medium comprising 10% FBS and 2mM L-glutamine. Cancerous and non-cancerous/normal cell lines were selected for the cell proliferation and cytotoxicity assay and maintained with 5% CO2 at 37 °C in a CO2 incubator with 100% relative humidity for one complete day before the addition of experimental drugs.
MTT, a well-known colorimetric cytotoxic assay was performed to validate the cytotoxicity of the selected compounds—VI(b), VI(c), VI(e), and VI(i)—against three different human tumor cell lines [MCF-7, MDA-MB-231, A549] and a normal cell line [HEK293]. The seeding of 1 × 10^4 cells onto each well was executed in a 96-well plate in triplicate, and to keep the cells viable, overnight incubation was undertaken at 37 °C with 5% CO2 in a CO2 incubator. […] The microplate reader was set at 570 nm to measure the absorbance of each well.

[2] = tested on: MCF-7 cells; test: ROS detection with DCFH-DA; assay type: cell-based, human; conditions: MCF-7, 40, 60, 80 µg/mL, vs control
Excerpt: ROS are commonly produced as a result of the cellular metabolic routes, and they play a key role as a secondary messenger in the healthy physiological system, but elevated quantities of ROS are the reason for various pathological conditions. To assess oxidative stress (ROS)-mediated apoptosis, DCFH-DA (2′,7′-dichlorodihydrofluorescein diacetate) dye was used as ROS transforms DCFH to DCF, producing a green fluorescence. The intensity of green fluorescence emitted is directly correlated with the amount of ROS produced by the cells in the treatment groups. Briefly, MCF-7 cells were passaged then seeded (5 × 10^4 cells /well) in a 12-well plate and exposed to all three (lower, IC50, higher) concentrations of compound VI(i); then, overnight incubation was undertaken with 5% carbon dioxide at 37 °C. To assess the generated ROS, treated cells (MCF-7) were washed with PBS. Staining was undertaken using DCFH-DA and photographed with the help of a fluorescence microscope (inverted) in the green and phase contrast channels.

[3] = target: T1, HDAC1 (Homo sapiens, UniProt Q13547); test: HDAC inhibition assay (color de lys ELISA kit), HDAC1; assay type: biochemical; conditions: HeLa nuclear extract as source of HDAC activity
T1 construct: The HeLa nuclear extract was used as a source of HDAC activity; host or cells: HeLa (nuclear extract / cells)
Protocol: (§1) SAHA served as the assay’s positive control. The HeLa nuclear extract was used as a source of HDAC activity. The trypsinized HeLa cells were tallied, put into 96-well microtiter plates, and nurtured. Samples and the standard were placed in wells at a concentration of 100 µL. The culture environment was maintained as per the procedure. 3,3′,5,5′-tetramethylbenzidine (TMB) was included for visualization. Finally, 50 µL of halt solution was smeared. The samples and different SAHA concentrations (0.01, 0.1, 1, 10 μM) were introduced to the appropriate well and left for 72 h. BioTek Epoch (Winooski, VT, USA) microplate reader was used to quantify optical density at 450 nm. The Graph Pad Prism 5 helped to determine the IC50 values.

[4] = target: T2, HDAC6 (Homo sapiens, UniProt Q9UBN7); test: HDAC inhibition assay (color de lys ELISA kit), HDAC6; assay type: biochemical; conditions: HeLa nuclear extract as source of HDAC activity
T2 construct: The HeLa nuclear extract was used as a source of HDAC activity; host or cells: HeLa (nuclear extract / cells)
T2 sequence (Q9UBN7 1-1215): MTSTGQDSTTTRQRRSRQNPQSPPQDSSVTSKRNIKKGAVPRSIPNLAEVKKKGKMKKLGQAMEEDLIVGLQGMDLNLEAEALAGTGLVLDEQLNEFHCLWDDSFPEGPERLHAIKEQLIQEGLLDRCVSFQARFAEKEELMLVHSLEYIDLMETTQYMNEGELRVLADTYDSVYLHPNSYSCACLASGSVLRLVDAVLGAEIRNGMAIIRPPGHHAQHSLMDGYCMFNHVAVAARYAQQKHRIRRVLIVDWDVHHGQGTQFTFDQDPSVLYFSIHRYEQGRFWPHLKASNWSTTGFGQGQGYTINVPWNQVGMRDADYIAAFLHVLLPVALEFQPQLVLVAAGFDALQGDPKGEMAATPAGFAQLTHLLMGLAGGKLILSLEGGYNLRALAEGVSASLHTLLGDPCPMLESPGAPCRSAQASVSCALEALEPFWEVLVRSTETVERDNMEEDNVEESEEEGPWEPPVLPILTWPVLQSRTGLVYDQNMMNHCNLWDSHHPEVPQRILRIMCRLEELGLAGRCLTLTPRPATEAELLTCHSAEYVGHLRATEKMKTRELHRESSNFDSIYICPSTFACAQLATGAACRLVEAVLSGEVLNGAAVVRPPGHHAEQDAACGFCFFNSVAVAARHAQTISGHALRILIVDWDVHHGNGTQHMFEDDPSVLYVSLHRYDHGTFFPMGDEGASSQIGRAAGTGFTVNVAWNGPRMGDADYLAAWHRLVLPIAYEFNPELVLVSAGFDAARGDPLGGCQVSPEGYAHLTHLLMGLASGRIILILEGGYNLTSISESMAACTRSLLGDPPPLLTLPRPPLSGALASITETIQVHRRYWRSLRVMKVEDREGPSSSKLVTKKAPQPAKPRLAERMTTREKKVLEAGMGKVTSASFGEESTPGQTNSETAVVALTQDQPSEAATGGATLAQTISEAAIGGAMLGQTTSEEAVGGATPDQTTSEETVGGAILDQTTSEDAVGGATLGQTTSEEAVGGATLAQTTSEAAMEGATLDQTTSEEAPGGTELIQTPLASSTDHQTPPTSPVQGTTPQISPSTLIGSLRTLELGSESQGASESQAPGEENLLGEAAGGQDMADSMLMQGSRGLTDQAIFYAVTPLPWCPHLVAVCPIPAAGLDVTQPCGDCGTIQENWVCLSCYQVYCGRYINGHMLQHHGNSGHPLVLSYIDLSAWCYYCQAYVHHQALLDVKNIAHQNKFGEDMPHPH
Protocol: as §1

T1 sequence (Q13547 whole entry): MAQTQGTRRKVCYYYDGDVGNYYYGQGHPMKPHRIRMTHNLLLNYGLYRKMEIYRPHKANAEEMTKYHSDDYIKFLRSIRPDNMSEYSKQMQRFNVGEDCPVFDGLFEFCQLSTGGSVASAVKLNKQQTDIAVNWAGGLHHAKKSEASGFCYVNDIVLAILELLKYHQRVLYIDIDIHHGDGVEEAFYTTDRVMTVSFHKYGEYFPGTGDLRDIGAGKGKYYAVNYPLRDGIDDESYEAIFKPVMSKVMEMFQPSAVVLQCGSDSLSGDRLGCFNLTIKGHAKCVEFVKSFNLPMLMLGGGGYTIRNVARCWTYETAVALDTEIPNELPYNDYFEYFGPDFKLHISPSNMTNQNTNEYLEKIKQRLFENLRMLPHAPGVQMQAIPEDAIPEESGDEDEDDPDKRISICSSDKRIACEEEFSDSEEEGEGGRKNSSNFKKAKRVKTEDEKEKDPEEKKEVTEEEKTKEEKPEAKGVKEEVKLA

IC50 [3]: 10.1 µM | IC50 [4]: 13.4 µM
Compound: COc1ccc(-c2cnn(CCCCCC(=O)NO)n2)cc1 [VI(i), N-Hydroxy-6-(4-(4-methoxyphenyl)-2H-1,2,3-triazol-2-yl)hexanamide]
IC50 [1]: > 100 µg/mL | ROS level [2]: significantly increased in concentration-dependent manner
